In patent publication US7435540B2 (IDEXX Corporation, priority 2002, dated 2008):

What was measured:
[1] = target: PrP^Sc (Mus musculus, UniProt P04925)
[2] = system: PrP^Sc
[3] = target: mouse PrP^Sc (Mus musculus, UniProt P04925)
[4] = target: bovine PrP^Sc (Bos taurus, UniProt P10279)
[5] = target: PrP^C (Mesocricetus auratus, UniProt P04273)
Chain of PrP^C (P04273 23-231 limits assumed): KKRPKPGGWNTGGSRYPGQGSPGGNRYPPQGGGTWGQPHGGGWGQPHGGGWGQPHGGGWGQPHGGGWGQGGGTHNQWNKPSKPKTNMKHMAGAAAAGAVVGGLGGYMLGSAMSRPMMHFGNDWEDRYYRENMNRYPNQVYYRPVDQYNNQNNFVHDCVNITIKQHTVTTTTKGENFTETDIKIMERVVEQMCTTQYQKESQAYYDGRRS

Chain of mouse PrP^Sc (P04925 23-230 limits assumed): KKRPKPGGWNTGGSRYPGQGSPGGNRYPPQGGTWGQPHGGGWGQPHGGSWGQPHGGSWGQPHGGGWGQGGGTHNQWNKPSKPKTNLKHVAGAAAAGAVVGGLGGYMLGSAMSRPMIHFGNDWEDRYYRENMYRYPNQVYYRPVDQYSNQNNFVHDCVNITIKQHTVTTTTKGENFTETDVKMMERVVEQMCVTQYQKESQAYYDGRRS
Chain of PrP^Sc (Mus musculus, UniProt P04925) (P04925 23-230 limits assumed): as above
Chain of bovine PrP^Sc (P10279 25-241 limits assumed): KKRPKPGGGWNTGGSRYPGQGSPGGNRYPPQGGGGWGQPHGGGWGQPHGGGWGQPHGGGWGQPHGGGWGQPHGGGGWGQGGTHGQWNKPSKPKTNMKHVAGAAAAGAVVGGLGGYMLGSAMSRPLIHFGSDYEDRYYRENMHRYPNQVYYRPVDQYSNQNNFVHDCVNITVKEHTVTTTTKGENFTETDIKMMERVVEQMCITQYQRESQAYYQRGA

Sequence | precipitation of PrP^Sc from scrapie mouse brain lysate [1] | PrP^Sc selective binding / capture [2] | competition with YYRRYYRYY beads for capture of mouse PrP^Sc [3] | further results
AYRRYARYA | not with YAR or AYR repeats | – | – | –
DEAYYKGWFAY | – | negative for PrP^Sc selective capture | – | –
DRYYWYFDV | – | negative for PrP^Sc selective capture | – | –
NHSTHNTGH | – | negative for PrP^Sc selective capture | – | –
YARRAYRAY | not with YAR or AYR repeats | – | failed to compete | capture of PrP^Sc from BSE-positive bovine brain lysate [4]: failed to capture PrP^Sc
YARYARYAR | – | shown to selectively bind PrP^Sc | – | –
YRAARYRAY | – | shown to selectively bind PrP^Sc | – | –
YSAASYASY | precipitation of PrP^Sc was observed | – | compete | –
YYAAYYAYY | precipitation of PrP^Sc was observed | – | compete | –
YYRRYYRYY | precipitation of PrP^Sc was observed | – | – | precipitation of normal isoform PrP^C from normal hamster brain lysate [5]: not the normal isoform; capture of PrP^Sc from BSE-positive bovine brain lysate [4]: captures PrP^Sc
